The results in this text go back to patent publication US10556926B2, “Synthetic artificial peptides with antimicrobial effect” (priority 2014, dated 2020).

For one assay, the system named is E. coli DH5α. As to conditions: MHB, 18 hours at 37° C.; mean of four test series. In short, it runs like this:
(§1)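 Broth microdilution MIC per CLSI/EUCAST, adapted for cationic peptides, in Mueller-Hinton broth. Peptides at final 64 to 0.25 μM (2-fold series) with 5·10^4 bacteria/ml, 18 h at 37° C with shaking; growth read as absorbance at 600 nm.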

A further assay deals with Staphylococcus xylosus. As to conditions: MHB, 18 hours at 37° C.; mean of four test series. A digest of the protocol: as §1
In the next assay the test system is E. coli ML-35p. Kind of assay: Kinetics of permeabilization of the inner bacteria membrane (ONPG). Type of assay: cell-based, Escherichia coli. The procedure: The ability of the antimicrobial peptides for the respective permeabilization of the outer and inner bacteria membrane was tested by way of example on E. coli ML-35p (made available by Dr. R. E. Lehrer, Center for Health Sciences, Los Angeles, Calif., USA). The peptides were incubated in serial dilution with E. coli ML-35p and the time-dependent release of cell-internal components was measured in a slightly modified protocol according to Ericsson et al. (2002). For this purpose, the bacteria were cultured in Luria-Bertani (LB) medium with 100 μg/ml ampicillin (Fluka, Taufkirchen, Germany) until reaching an optical density of 0.4 at 600 nm wavelength. Then, the cells were washed three times by centrifugation at 4000 g for 1 min and subsequent up-take in 10 mM HEPES buffer pH 7.2. Finally, the cells were diluted to an optical density of 0.3 at 600 nm wavelength. To measure the permeabilization of the outer membrane, nitrocefin (Merck, Darmstadt, Germany) was diluted in HEPES buffer to a concentration of 60 μg/ml. The antimicrobial peptides were diluted in HEPES buffer to an end concentration of 12 μM, 24 μM, 48 μM and 96 μM end concentration. In the next step, 50 μl of nitrocefin were admixed with 50 μl of antimicrobial peptide and 50 μl of bacteria suspension such that an end concentration of 20 μg/ml of nitrocefin, 4 μM to 32 μM of antimicrobial peptide and bacteria with an optical density of 0.1 to 600 nm were present. The samples were mixed and the absorption at 500 nm wavelength was measured directly over a period of at least 90 min at 37° C. with regular shaking in a FLUOstar omega Microplate Reader (BMG Labtech, Ortenberg, Germany). The investigation of the permeabilization of the inner membrane was carried out in the same way except that instead of the nitrocefin accordingly 0-nitrophenyl-beta-D-galactoside (ONPG, Sigma-Aldrich) in an end concentration of 100 μg/ml was used and the absorption change was determined at a wavelength of 420 nm. The control used was samples without antimicrobial peptide, the positive control used for the membrane permeabilization was polymyxin B (Sigma-Aldrich) in an end concentration of 5 μM. For the data evaluation, firstly the measurement values of the corresponding negative controls were deducted from the measurement values of the samples, and the difference was then divided by the corresponding measurement values of the permeabilization control. Then, a graphical evaluation was carried out, the calculated values being plotted against the peptide concentration and being fitted with the help of the Origin Pro 8.1 G Software (OriginLab) according to a sigmoidal model. As representative examples, FIGS. 4 and 5 show the graphical evaluation for the kinetic investigation of the permeabilization of the outer E. coli bacteria membrane for the peptides N4 (FIG. 4) and O1 (FIG. 5).
As comparison parameter between the peptides, the times were ascertained from this at which 50% of the final signal level was reached. For this purpose, the equation with the percentage membrane permeabilization y, the time x in minutes, the lower plateau A1, the upper plateau A2, the point of inflection Log X0 and the Hill incline p
[formula] was used. The calculation of the parameters A1, A2, Log X0 and p was performed by the program by reference to the compensating curve. Further resolution of equation 5.1 for the case y=50 then produced for x the desired time at which the half-maximum signal level was reached.

Converted amounts (≈) assume the structure as drawn. No end group written: not given here.

`CC[C@H](C)[C@H](NC(=O)CN)C(=O)NCC(=O)N[C@@H](C)C(=O)N[C@H](C(=O)N[C@@H](CC(C)C)C(=O)N[C@@H](CCCCN)C(=O)N[C@H](C(=O)N[C@@H](CC(C)C)C(=O)N[C@H](C(=O)N[C@H](C(=O)NCC(=O)N[C@@H](CC(C)C)C(=O)N1CCC[C@H]1C(=O)N[C@@H](C)C(=O)N[C@@H](CC(C)C)C(=O)N[C@H](C(=O)N[C@@H](CO)C(=O)N[C@@H](Cc1c[nH]c2ccccc12)C(=O)N[C@H](C(=O)N[C@@H](CCCCN)C(=O)N[C@@H](CCCNC(=N)N)C(=O)N[C@@H](CCCCN)C(=O)N[C@@H](CCCNC(=N)N)C(=O)N[C@@H](CCC(N)=O)C(=O)N[C@@H](CCC(N)=O)C(N)=O)[C@@H](C)CC)[C@@H](C)CC)[C@@H](C)O)[C@@H](C)O)C(C)C)C(C)C` [Melittin]: in the assay on E. coli DH5α, the “MIC E. coli” value worked out at 8 µM (≈ 22.8 µg/mL). For the same compound, in the assay on Staphylococcus xylosus, the “MIC S. xylosus” value worked out at 2 µM (≈ 5.69 µg/mL). The “Inner membrane, time to 50% of final signal” value in the assay with E. coli ML-35p (4 μM peptide) worked out at 18 min; in the assay on E. coli ML-35p (8 μM peptide), 12 min; with E. coli ML-35p (16 μM peptide) it was 9 min; in the assay with E. coli ML-35p (32 μM peptide), 6 min.

On to ILPWKWPWWPWRR [Indolicidin], for which, in the assay with E. coli DH5α, the “MIC E. coli” value stood at 4 µM. The “MIC S. xylosus” value in the assay with Staphylococcus xylosus came to 32 µM. In addition, the “Inner membrane, time to 50% of final signal” value in the assay with E. coli ML-35p (4 μM peptide), in the assay on E. coli ML-35p (8 μM peptide), with E. coli ML-35p (16 μM peptide) and with E. coli ML-35p (32 μM peptide) was over 90 min each time.

For KILILIKRK-OH [N4], in the assay with E. coli DH5α, the “MIC E. coli” value worked out at 32 µM. Besides, the “MIC S. xylosus” value against Staphylococcus xylosus was 16 µM. For the same compound, the “Inner membrane, time to 50% of final signal” value in the assay on E. coli ML-35p (4 μM peptide), with E. coli ML-35p (8 μM peptide), in the assay with E. coli ML-35p (16 μM peptide) and in the assay with E. coli ML-35p (32 μM peptide) was over 90 min each time.

As for KRKRKILILIKRK-OH [N1], the “MIC E. coli” value against E. coli DH5α amounted to 8 µM. The “MIC S. xylosus” value against Staphylococcus xylosus was 0.5 µM. Further, the “Inner membrane, time to 50% of final signal” value with E. coli ML-35p (4 μM peptide) is reported as over 90 min; in the assay with E. coli ML-35p (8 μM peptide), over 90 min; with E. coli ML-35p (16 μM peptide), 38 min; in the assay on E. coli ML-35p (32 μM peptide), 32 min.

Consider “MPRRRRSSSRPVRRRRRPRVSRRRRRRGGRRR (Protamine) [protamine from salmon, grade IV, histone-free (Sigma-Aldrich)]”, for which the “MIC E. coli” value against E. coli DH5α is 8 µM. Moreover, the “MIC S. xylosus” value against Staphylococcus xylosus was found to be 0.5 µM. Also, the “Inner membrane, time to 50% of final signal” value in the assay on E. coli ML-35p (4 μM peptide), with E. coli ML-35p (8 μM peptide), in the assay with E. coli ML-35p (16 μM peptide) and in the assay on E. coli ML-35p (32 μM peptide) was over 90 min throughout.
